According to ChEMBL document CHEMBL3526096, “Species differences in biliary clearance and possible relevance of hepatic uptake and efflux transporters involvement” (Drug Metab Dispos, 2013):

Tests used:
[1] = tested on: Homo sapiens; assay: Total biliary clearance in human at 20 mg, iv after 24 hrs by T-tube method; type: ADME, organism-based, Bile; conditions: in vivo
[2] = tested on: Homo sapiens; assay: Unbound biliary clearance in human at 20 mg, iv after 24 hrs by T-tube method; type: ADME, organism-based, Bile; conditions: in vivo
[3] = tested on: Rattus norvegicus; assay: Total biliary clearance in Sprague-Dawley rat at 8 uCi, iv; type: ADME, organism-based, Bile; conditions: in vivo
[4] = tested on: Rattus norvegicus; assay: Unbound biliary clearance in Sprague-Dawley rat at 8 uCi, iv; type: ADME, organism-based, Bile; conditions: in vivo
[5] = Drug excretion in human assessed as compound excreted into bile at 20 mg, iv after 24 hrs by T-tube method; type: ADME, organism-based; conditions: read-out: Drug excretion
[6] = tested on: Homo sapiens; assay: Total biliary clearance in human at 200 mg, po after 24 hrs by T-tube method; type: ADME, organism-based, Bile; conditions: in vivo
[7] = tested on: Homo sapiens; assay: Unbound biliary clearance in human at 200 mg, po after 24 hrs by T-tube method; type: ADME, organism-based, Bile; conditions: in vivo
[8] = tested on: Rattus norvegicus; assay: Total biliary clearance in iv dosed rat; type: ADME, organism-based, Bile; conditions: in vivo
[9] = tested on: Rattus norvegicus; assay: Unbound biliary clearance in iv dosed rat; type: ADME, organism-based, Bile; conditions: in vivo
[10] = Drug excretion in iv dosed rat assessed as compound excreted into bile; type: ADME, organism-based; conditions: read-out: Drug excretion
[11] = Drug excretion in human assessed as compound excreted into bile at 200 mg, po after 24 hrs by T-tube method; type: ADME, organism-based; conditions: read-out: Drug excretion
[12] = Drug excretion in human assessed as compound excreted into bile at 2 gm, iv after 24 hrs by T-tube method; type: ADME, organism-based; conditions: read-out: Drug excretion
[13] = tested on: Homo sapiens; assay: Total biliary clearance in iv dosed human after 7 hrs by duodenal perfusion method; type: ADME, organism-based, Bile; conditions: in vivo
[14] = tested on: Homo sapiens; assay: Unbound biliary clearance in iv dosed human after 7 hrs by duodenal perfusion method; type: ADME, organism-based, Bile; conditions: in vivo
[15] = tested on: Canis familiaris; assay: Total biliary clearance in iv dosed dog; type: ADME, organism-based, Canis lupus familiaris, Bile; conditions: in vivo
[16] = tested on: Canis familiaris; assay: Unbound biliary clearance in iv dosed dog; type: ADME, organism-based, Canis lupus familiaris, Bile; conditions: in vivo
[17] = Drug excretion in iv dosed human assessed as compound excreted into bile after 7 hrs by duodenal perfusion method; type: ADME, organism-based; conditions: read-out: Drug excretion
[18] = Drug excretion in iv dosed dog assessed as compound excreted into bile; type: ADME, organism-based, Canis lupus familiaris; conditions: read-out: Drug excretion
[19] = tested on: Homo sapiens; assay: Total biliary clearance in human at 1 gm, iv after 24 hrs by T-tube method; type: ADME, organism-based, Bile; conditions: in vivo
[20] = tested on: Homo sapiens; assay: Unbound biliary clearance in human at 1 gm, iv after 24 hrs by T-tube method; type: ADME, organism-based, Bile; conditions: in vivo
[21] = tested on: Rattus norvegicus; assay: Total biliary clearance in Sprague-Dawley rat at 20 mg/kg, iv; type: ADME, organism-based, Bile; design: dose 20 mg/kg, route intravenous; conditions: in vivo
[22] = tested on: Rattus norvegicus; assay: Unbound biliary clearance in Sprague-Dawley rat at 20 mg/kg, iv; type: ADME, organism-based, Bile; design: dose 20 mg/kg, route intravenous; conditions: in vivo
[23] = tested on: Canis familiaris; assay: Total biliary clearance in beagle dog at 20 mg/kg, iv; type: ADME, organism-based, Canis lupus familiaris, Bile; design: dose 20 mg/kg, route intravenous; conditions: in vivo
[24] = tested on: Canis familiaris; assay: Unbound biliary clearance in beagle dog at 20 mg/kg, iv; type: ADME, organism-based, Canis lupus familiaris, Bile; design: dose 20 mg/kg, route intravenous; conditions: in vivo
[25] = Drug excretion in Sprague-Dawley rat assessed as compound excreted into bile at 20 mg/kg, iv; type: ADME, organism-based; design: dose 20 mg/kg, route intravenous; conditions: read-out: Drug excretion
[26] = Drug excretion in beagle dog assessed as compound excreted into bile at 20 mg/kg, iv; type: ADME, organism-based, Canis lupus familiaris; design: dose 20 mg/kg, route intravenous; conditions: read-out: Drug excretion
[27] = Drug excretion in human assessed as compound excreted into bile at 1 gm, iv after 24 hrs by T-tube method; type: ADME, organism-based; conditions: read-out: Drug excretion
[28] = tested on: Homo sapiens; assay: Total biliary clearance in iv dosed human after 6 to 8 hrs by duodenal perfusion method; type: ADME, organism-based, Bile; conditions: in vivo
[29] = tested on: Homo sapiens; assay: Unbound biliary clearance in iv dosed human after 6 to 8 hrs by duodenal perfusion method; type: ADME, organism-based, Bile; conditions: in vivo
[30] = Drug excretion in iv dosed human assessed as compound excreted into bile after 6 to 8 hrs by duodenal perfusion method; type: ADME, organism-based; conditions: read-out: Drug excretion
[31] = Drug excretion in rat assessed as compound excreted into bile at 10 mg/kg, iv
[32] = Drug excretion in human assessed as compound excreted into bile at 400 mg, po after 24 hrs by T-tube method
[33] = tested on: Homo sapiens; assay: Total biliary clearance in iv dosed human after 8 hrs by T-tube method; type: ADME, organism-based, Bile; conditions: in vivo
[34] = tested on: Homo sapiens; assay: Unbound biliary clearance in iv dosed human after 8 hrs by T-tube method; type: ADME, organism-based, Bile; conditions: in vivo
[35] = tested on: Rattus norvegicus; assay: Total biliary clearance in iv dosed Wistar rat; type: ADME, organism-based, Bile; conditions: in vivo
[36] = tested on: Rattus norvegicus; assay: Unbound biliary clearance in iv dosed Wistar rat; type: ADME, organism-based, Bile; conditions: in vivo
[37] = Drug excretion in iv dosed Wistar rat assessed as compound excreted into bile; type: ADME, organism-based; conditions: read-out: Drug excretion
[38] = Drug excretion in iv dosed human assessed as compound excreted into bile after 8 hrs by T-tube method; type: ADME, organism-based; conditions: read-out: Drug excretion
[39] = tested on: Homo sapiens; assay: Total biliary clearance in human at 1 nmol/l, iv after 8 hrs by duodenal perfusion method; type: ADME, organism-based, Bile; conditions: in vivo
[40] = tested on: Rattus norvegicus; assay: Total biliary clearance in iv dosed Sprague-Dawley rat; type: ADME, organism-based, Bile; conditions: in vivo
[41] = tested on: Homo sapiens; assay: Unbound biliary clearance in human at 1 nmol/l, iv after 8 hrs; type: ADME, organism-based, Bile; conditions: in vivo
[42] = tested on: Rattus norvegicus; assay: Unbound biliary clearance in iv dosed Sprague-Dawley rat; type: ADME, organism-based, Bile; conditions: in vivo
[43] = Drug excretion in iv dosed Sprague-Dawley rat assessed as compound excreted into bile; type: ADME, organism-based; conditions: read-out: Drug excretion
[44] = Drug excretion in human assessed as compound excreted into bile at 1 nmol/l, iv after 8 hrs; type: ADME, organism-based; conditions: read-out: Drug excretion

SMILES: CCCCC(=O)N(Cc1ccc(-c2ccccc2-c2nnn[nH]2)cc1)[C@H](C(=O)O)C(C)C
- CL [1]: 0.431 mL/min/kg
- CL free [2]: 10.775 mL/min/kg
- CL [3]: 12.5 mL/min/kg
- CL free [4]: 378.8 mL/min/kg
- dose excreted at 24 h [5]: 88%

SMILES: C=CC1=C(C(=O)O)N2C(=O)[C@@H](NC(=O)/C(=N\OCC(=O)O)c3csc(N)n3)[C@H]2SC1 [CEFIXIME]
- CL [6]: 0.14 mL/min/kg
- CL free [7]: 0.452 mL/min/kg
- CL [8]: 1 mL/min/kg
- CL free [9]: 7.143 mL/min/kg
- dose excreted [10]: 41%
- dose excreted at 24 h [11]: 11%

SMILES: CCN1CCN(C(=O)N[C@@H](C(=O)N[C@@H]2C(=O)N3C(C(=O)O)=C(CSc4nnnn4C)CS[C@H]23)c2ccc(O)cc2)C(=O)C1=O [CEFOPERAZONE]
- dose excreted [10]: 86%
- dose excreted at 24 h [12]: 12%

SMILES: CO[C@@]1(NC(=O)C2SC(=C(C(N)=O)C(=O)O)S2)C(=O)N2C(C(=O)O)=C(CSc3nnnn3C)CS[C@@H]21 (stereo partly drawn) [CEFOTETAN]
- CL [13]: 2.88 mL/h/kg
- CL free [14]: 0.32 mL/min/kg
- CL [8]: 6.14 mL/min/kg
- CL free [9]: 8.771 mL/min/kg
- CL [15]: 0.696 mL/min/kg
- CL free [16]: 1.141 mL/min/kg
- dose excreted at 7 h [17]: 11%
- dose excreted [10]: 48%
- dose excreted [18]: 17%

SMILES: Cc1cc(O)c(C(=O)N[C@@H](C(=O)N[C@@H]2C(=O)N3C(C(=O)O)=C(CSc4nnnn4C)CS[C@H]23)c2ccc(O)cc2)cn1 [CEFPIRAMIDE]
- CL [19]: 2.4 mL/h/kg
- CL free [20]: 1 mL/min/kg
- CL [21]: 5.22 mL/min/kg
- CL free [22]: 9.667 mL/min/kg
- CL [23]: 0.979 mL/min/kg
- CL free [24]: 1.399 mL/min/kg
- dose excreted [25]: 58%
- dose excreted [26]: 19%
- dose excreted at 24 h [27]: 28%

SMILES: CO/N=C(\C(=O)N[C@@H]1C(=O)N2C(C(=O)O)=C(CSc3nc(=O)c(=O)[nH]n3C)CS[C@H]12)c1csc(N)n1 [CEFTRIAXONE]
- CL [28]: 4.2 mL/h/kg
- CL free [29]: 0.933 mL/min/kg
- CL [21]: 0.82 mL/min/kg
- CL free [22]: 12.73 mL/min/kg
- CL [23]: 2.5 mL/min/kg
- CL free [24]: 2.907 mL/min/kg
- dose excreted [25]: 62%
- dose excreted [26]: 63%
- dose excreted [30]: 30%

SMILES: CC1=C(C(=O)O)N2C(=O)[C@@H](NC(=O)[C@H](N)c3ccccc3)[C@H]2SC1 [CEPHALEXIN ANHYDROUS]
- dose excreted [10]: 32%

SMILES: O=C(O)c1cn(C2CC2)c2cc(N3CCNCC3)c(F)cc2c1=O [CIPROFLOXACIN]
- dose excreted [31]: 10%
- dose excreted at 24 h [32]: 0.5%

SMILES: O=C([O-])Cc1ccccc1Nc1c(Cl)cccc1Cl.[Na+] [DICLOFENAC SODIUM]
- CL [33]: 2.52 mL/h/kg
- CL free [34]: 8.4 mL/min/kg
- CL [35]: 0.85 mL/min/kg
- CL free [36]: 94.44 mL/min/kg
- dose excreted [37]: 5%
- dose excreted at 8 h [38]: 1%

SMILES: C[C@H]1O[C@@H](O[C@H]2[C@@H](O)C[C@H](O[C@H]3[C@@H](O)C[C@H](O[C@H]4CC[C@@]5(C)[C@H](CC[C@@H]6[C@@H]5C[C@@H](O)[C@]5(C)[C@@H](C7=CC(=O)OC7)CC[C@]65O)C4)O[C@@H]3C)O[C@@H]2C)C[C@H](O)[C@@H]1O [DIGOXIN]
- CL [39]: 1.595 mL/min/kg
- CL [40]: 3.03 mL/min/kg
- CL free [41]: 2.279 mL/min/kg
- CL free [42]: 4.329 mL/min/kg
- CL [15]: 1.313 mL/min/kg
- CL free [16]: 2.68 mL/min/kg
- dose excreted [43]: 31%
- dose excreted [18]: 7%
- dose excreted at 8 h [44]: 41%
